Values quoted from earlier work as cited in patent US20080095814A1, “Compositions Having a High Antiviral and Antibacterial Efficacy” (THE DIAL CORPORATION, priority 2004, published 2008).

Test system: rhinoviral infections
Conditions: subjects who used iodine products

## II [iodine]
  colds in users versus placebo users: significantly fewer colds than placebo users
